According to patent publication US10662146B2, “Prodrugs of fencamfamine” (Praxis Bioresearch, LLC, priority 2015, dated 2020):
Where “and” joins values, the source holds several entries; their conditions need not be identical. Equal values may be shown once. Read-outs that look alike come from different tables or passages of the source.

Test: Single dose intravenous PK study in male Sprague Dawley rats (plasma by LC-MS/MS)
Type: in vivo
Settings: for Cmax / AUC / Tmax / AUC(0-inf) / AUC(0-t) / clearance / MRT last / half-life / Vd / C0: male, rat; for Cmax / AUC(0-inf) / AUC(0-t) / clearance / MRT last / half-life / Vd / C0: iv; for AUC: read-out: IV PK Parameters AUC, Prodrug; for C0: read-out: C0 of PRX-P5-006
Protocol: We describe here PK results of prodrugs of PRX-002 (−) or (+) isomers. All doses of prodrugs were administered such that they were equivalent to 5 mg/kg of PRX-002 (−) or (+) for oral studies and 2 mg/kg PRX-002 (−) or (+) for intravenous studies in male Sprague-Dawley (MSD) rats. Higher doses of up to 10 or 15 mg/kg [again equivalent to PRX-002 (−)] were used in some studies (as specified)]. Formulation preparation, dose administration and time of sample collection was as follows.
(§1) Adult male Sprague Dawley Rats aged 8-10 weeks were used for the study. Animals were administered the test item by Intravenous bolus route with a dose of 2 mg/kg body weight at dose volume of 5.0 mL/kg body weight. Under mild isoflurane anesthesia, blood specimens were collected by retro-orbital puncture method using capillary tubes into pre-labeled tubes containing anticoagulant (K2EDTA-2 mg/mL blood) during the next 24 hours of post dose as mentioned in below table. For blood sampling at multiple time points, right and left eyes were used alternatively for blood collection. Collected blood specimens were centrifuged at 4000 rpm, 4° C. for 10 minutes and plasma were separated and stored at −80° C. until analysis.
Blood was collected as outlined in Table 39.2 (IV).
Test item PRX-P4-003 was weighed and transferred to a graduated tube. Then 600 μL of PEG 400 (v/v) was added and vortex mixed thoroughly until the test item was completely dissolved. Then 1.800 mL of Hydroxypropyl-β-cyclodextrin (HPβCD, 50% w/v) was added and vortex mixed thoroughly. The final volume was then made up to 3.600 mL with sterile water for injection (SWFI, v/v) with final formulation strength of 5.16 mgA/mL. […] This formulation was freshly prepared before the administration to animals.
as §1, with “administered with a PRX-P4-003” for “administered the test item”, “of 10” for “of 2”, “of 5” for “of 5.0”
Test item PRX-P5-006 was weighed and transferred to a graduated tube. Then 500 μL of DMSO (v/v) was added vortex mixed thoroughly until the test item was completely dissolved. Then 4000 μL of Hydroxypropyl-β-cyclodextrin (HPβCD, 50% w/v) was added and vortex mixed thoroughly. Then 2500 μL of PEG 400 (v/v) was added and vortex mixed thoroughly. The final volume was then made up to 10000 μL with sterile water for injection (SWFI, v/v) with final formulation strength of 3.97 mg/mL. […] This formulation was freshly prepared before the administration to animals.
as §1, with “administered with a PRX-P5-006” for “administered the test item”, “of 15” for “of 2”, “of 10” for “of 5.0”
The plasma concentrations of fencamfamine were measured by LC-MS/MS over time. […] The release of fencamfamine from the prodrugs varied depending on the chain length of the fatty acid linkers attached to fencamfamine. […]

[1] = Sprague Dawley, plasma, 2 mg/kg, IV 2 mg/kg [equivalent to PRX-002 (−)], analyte: prodrug in plasma, mean, read-out: IV PK Parameters Cmax, Prodrug
[2] = Sprague Dawley, IV 2 mg/kg [equivalent to PRX-002 (−)], analyte: prodrug in plasma, mean
[3] = Sprague Dawley, IV 2 mg/kg [equivalent to PRX-002 (−)], analyte: prodrug in plasma, mean, read-out: IV PK Parameters Tmax, Prodrug
[4] = PRX-P5-006 IV 2 mg/kg b.w., individual animals, 2 mg/kg
[5] = PRX-P5-006 IV 2 mg/kg, mean, 2 mg/kg

CCCCCCCCCCCCCCCCCC(=O)OCOC(=O)N(CC)C1C2CCC(C2)C1c1ccccc1 (single isomer, unassigned) [PRX-P4-003, N-(Octadecanoyloxymethoxycarbonyl)-(−)-N-ethyl-3-phenylbicyclo[2.2.1]heptan-2-amine]
Plasma concentration of PRX-P4-003 (PRX-P4-003 IV 2 mg/kg b.w., 0.08 h, mean): 171.96 | Plasma concentration of PRX-P4-003 (PRX-P4-003 IV 2 mg/kg b.w., 0.25 h, mean): 47.94 | Plasma concentration of PRX-P4-003 (PRX-P4-003 IV 2 mg/kg b.w., 0.50 h, mean): 26.73 | Plasma concentration of PRX-P4-003 (PRX-P4-003 IV 2 mg/kg b.w., 1.00 h, mean): 20.03 | Plasma concentration of PRX-P4-003 (PRX-P4-003 IV 2 mg/kg b.w., 2.00 h, mean): 18.29 | Plasma concentration of PRX-P4-003 (PRX-P4-003 IV 2 mg/kg b.w., 4.00 h, mean): 14.23 | Plasma concentration of PRX-P4-003 (PRX-P4-003 IV 2 mg/kg b.w., 6.00 h, mean): 10.72 | Plasma concentration of PRX-P4-003 (PRX-P4-003 IV 2 mg/kg b.w., 24.00 h, mean): 0.00 | AUC% extrap of PRX-P4-003 (PRX-P4-003 IV 2 mg/kg, mean): 32.475 ± 83.3890% | Plasma concentration of PRX-P4-003 (PRX-P4-003 IV 10 mg/kg b.w., 0.08 h, mean): 199.64 | Plasma concentration of PRX-P4-003 (PRX-P4-003 IV 10 mg/kg b.w., 0.25 h, mean): 27.98 | Plasma concentration of PRX-P4-003 (PRX-P4-003 IV 10 mg/kg b.w., 0.50 h, mean): 8.96 | Plasma concentration of PRX-P4-003 (PRX-P4-003 IV 10 mg/kg b.w., 1.00 h, mean): 0.00 | Plasma concentration of PRX-P4-003 (PRX-P4-003 IV 10 mg/kg b.w., 2.00 h, mean): 0.00 | Plasma concentration of PRX-P4-003 (PRX-P4-003 IV 10 mg/kg b.w., 4.00 h, mean): 0.00 | Plasma concentration of PRX-P4-003 (PRX-P4-003 IV 10 mg/kg b.w., 6.00 h, mean): 0.00 | Plasma concentration of PRX-P4-003 (PRX-P4-003 IV 10 mg/kg b.w., 24.00 h, mean): 0.00 | Conversion of pro-drug form to active form PRX-002(−) isomer in plasma (PRX-P4-003 IV administration (FIG. 2)): minimal amounts | Amount of parent PRX-002 (−) generated (PRX-P4-003 IV, even at higher dose of 10 mg/kg (FIG. 3)): very limited amount | Cmax [1]: 172 ± 62.6 ng/mL | AUC [2]: 133 ± 32.5 ng·h/mL | Tmax [3]: 4.8 min | AUC(0-inf) (Sprague-Dawley, plasma, 2 mg/kg, PRX-P4-003 IV 2 mg/kg, mean, read-out: AUCinf of PRX-P4-003): 216 ± 83.4 ng·h/mL | AUC(0-t) (Sprague-Dawley, plasma, 2 mg/kg, PRX-P4-003 IV 2 mg/kg, mean, read-out: AUClast of PRX-P4-003): 133 ± 32.5 ng·h/mL | clearance (Sprague-Dawley, plasma, 2 mg/kg, PRX-P4-003 IV 2 mg/kg, mean, read-out: CL of PRX-P4-003): 172 ± 69.3 mL/min/kg | Cmax (Sprague-Dawley, plasma, 2 mg/kg, PRX-P4-003 IV 2 mg/kg, mean, read-out: Cmax of PRX-P4-003): 172 ± 62.6 ng/mL | MRT last (Sprague-Dawley, plasma, 2 mg/kg, PRX-P4-003 IV 2 mg/kg, mean, read-out: MRTlast of PRX-P4-003): 1.84 ± 0.713 h | half-life (Sprague-Dawley, plasma, 2 mg/kg, PRX-P4-003 IV 2 mg/kg, mean, read-out: T1/2 of PRX-P4-003 (converted)): 3.35 ± 2.18 h | Vd (Sprague-Dawley, plasma, 2 mg/kg, PRX-P4-003 IV 2 mg/kg, mean, read-out: Vss of PRX-P4-003): 42 ± 19.9 L/kg | Tmax (Sprague-Dawley, plasma, PRX-P4-003 IV 2 mg/kg, mean, read-out: Tmax of PRX-P4-003): 4.8 min

CCCCCCCCCCCCCCCCCC(=O)OC(C)OC(=O)N(CC)C1C2CCC(C2)C1c1ccccc1 (single isomer, unassigned) [PRX-P5-006, N-(1-Octadecanoyloxyethoxycarbonyl)-(−)-N-ethyl-3-phenylbicyclo[2.2.1]heptan-2-amine]
AUC% extrap of PRX-P5-006 [4]: 5.16% and 3.49% and 11.16% | AUCinf of PRX-P5-006 [4]: 3977.39 ng·h/mL and 4119.23 ng·h/mL | AUClast of PRX-P5-006 [4]: 3838.58 ng·h/mL and 3659.58 ng·h/mL | C0 of PRX-P5-006 [4]: 32467.12 ng/mL and 21202.31 ng/mL | CL of PRX-P5-006 [4]: 8.38 mL/min/kg and 8.09 mL/min/kg | Cmax of PRX-P5-006 [4]: 8662.3 ng/mL and 7404.71 ng/mL | MRTlast of PRX-P5-006 [4]: 2.7 h and 0.93 h and 3.31 h | T1/2 of PRX-P5-006 [4]: 7.54 h and 2.06 h and 9.32 h | Vss of PRX-P5-006 [4]: 1.56 L/kg and 0.61 L/kg and 3.46 L/kg | AUC% extrap of PRX-P5-006 [5]: 6.602 ± 4.0330% and 6.602% | T1/2 of PRX-P5-006 [5]: 6.304 h | Level of intact PRX-P5-006 in plasma, IV versus oral (PRX-P5-006 administered IV (FIGS. 5A, 5B)): Much higher level of intact PRX-P5-006 | Cmax [1]: 707 ± 500 ng/mL | AUC(0-inf) (Sprague Dawley, plasma, 2 mg/kg, PRX-P5-006 IV 2 mg/kg, mean, read-out: AUCinf of PRX-P5-006): 4560 ± 894 ng·h/mL | AUC(0-t) (Sprague Dawley, plasma, 2 mg/kg, PRX-P5-006 IV 2 mg/kg, mean, read-out: AUClast of PRX-P5-006): 4270 ± 902 ng·h/mL | clearance (Sprague Dawley, plasma, 2 mg/kg, PRX-P5-006 IV 2 mg/kg, mean, read-out: CL of PRX-P5-006): 7.48 ± 1.32 mL/min/kg | Vd (Sprague Dawley, plasma, 2 mg/kg, PRX-P5-006 IV 2 mg/kg, mean, read-out: Vss of PRX-P5-006): 1.88 ± 1.45 L/kg | Cmax (Sprague Dawley, plasma, 15 mg/kg, IV 15 mg/kg (footnote *), analyte: prodrug in plasma, mean, read-out: IV PK Parameters Cmax, Prodrug): 16400 ± 7100 ng/mL | AUC [2]: 410 ± 301 ng·h/mL | Tmax [3]: 4.8 min | AUC (Sprague Dawley, IV 15 mg/kg (footnote *), analyte: prodrug in plasma, mean): 8060 ± 1760 ng·h/mL | Tmax (Sprague Dawley, IV 15 mg/kg (footnote *), analyte: prodrug in plasma, mean, read-out: IV PK Parameters Tmax, Prodrug): 4.8 min | AUC(0-inf) (Sprague-Dawley, plasma, 2 mg/kg, PRX-P5-006 IV 2 mg/kg b.w., individual animals, read-out: AUCinf of PRX-P5-006): 5590 ng·h/mL | AUC(0-t) (Sprague-Dawley, plasma, 2 mg/kg, PRX-P5-006 IV 2 mg/kg b.w., individual animals, read-out: AUClast of PRX-P5-006): 5300 ng·h/mL | C0 (Sprague-Dawley, plasma, 2 mg/kg, PRX-P5-006 IV 2 mg/kg b.w., individual animals): 36200 ng/mL | clearance (Sprague-Dawley, plasma, 2 mg/kg, PRX-P5-006 IV 2 mg/kg b.w., individual animals, read-out: CL of PRX-P5-006): 5.96 mL/min/kg | Cmax (Sprague-Dawley, plasma, 2 mg/kg, PRX-P5-006 IV 2 mg/kg b.w., individual animals, read-out: Cmax of PRX-P5-006): 11200 ng/mL | C0 (Sprague-Dawley, plasma, 2 mg/kg, PRX-P5-006 IV 2 mg/kg, mean): 30000 ng/mL | Cmax (Sprague-Dawley, plasma, 2 mg/kg, PRX-P5-006 IV 2 mg/kg, mean, read-out: Cmax of PRX-P5-006): 9100 ± 1950 ng/mL | MRT last (Sprague-Dawley, plasma, 2 mg/kg, PRX-P5-006 IV 2 mg/kg, mean, read-out: MRTlast of PRX-P5-006): 2.31 ± 1.24 h | half-life (Sprague-Dawley, plasma, 2 mg/kg, PRX-P5-006 IV 2 mg/kg, mean, read-out: T1/2 of PRX-P5-006 (converted)): 6.3 ± 3.79 h | Tmax (Sprague-Dawley, plasma, PRX-P5-006 IV 2 mg/kg, mean, read-out: Tmax of PRX-P5-006): 4.8 min
